Test results from the supplement of paper PMC13380429.

How the values were obtained:
A549-ACE2 [1] = test: drug-induced phospholipidosis relative to tamoxifen; higher = more phospholipidosis
A549-ACE2 [2] = test: phospholipidosis EC50; higher = less potent phospholipidosis inducer
U2OS [3] = test: drug sensitivity score (DSS) for viability; higher = more toxic; extreme values may be limits of the assay; conditions: 72 h
HepG2 [4] = test: as above; conditions: 72 h
Caco-2 [5] = test: as above; conditions: 72 h
Vero E6 [6] = test: as above; conditions: 72 h
Calu-3 [7] = test: as above; conditions: 72 h
[8] = system: A549-ACE2 infected with SARS-CoV-2; test: cell count relative to DMSO; higher = less toxic; conditions: 24 h
U2OS [9] = test: relative viability EC50 (midpoint between 100% and the lowest measured viability); higher = less toxic; conditions: 72 h
HepG2 [10] = test: as above; conditions: 72 h
Vero E6 [11] = test: as above; conditions: 72 h
Calu-3 [12] = test: as above; conditions: 72 h
[13] = system: A549-ACE2 infected with SARS-CoV-2; test: SARS-CoV-2 infection rate relative to DMSO; higher = more infection; conditions: 24 h
U2OS [14] = test: cell viability relative to DMSO; higher = less toxic; conditions: 72 h
HepG2 [15] = test: as above; conditions: 72 h
Caco-2 [16] = test: as above; conditions: 72 h
Vero E6 [17] = test: as above; conditions: 72 h
Calu-3 [18] = test: as above; conditions: 72 h
[19] = system: A549-ACE2 infected with SARS-CoV-2; test: morphology score (similarity to uninfected cells); higher = more like uninfected cells; conditions: 24 h
Caco-2 [20] = test: relative viability EC50 (midpoint between 100% and the lowest measured viability); higher = less toxic; conditions: 72 h

CCN(CC)CCO[C@H]1CC[C@@]2(C)C(=CC[C@@H]3[C@@H]2CC[C@]2(C)C(=O)CC[C@@H]32)C1
drug-induced phospholipidosis [%], A549-ACE2 [1]
Conditions | 0.3 µM | 0.833333 µM | 3.33333 µM | 6.66667 µM | 10 µM | 30 µM
24 h | 6.72 | 34.6 | 112 | 114 | 104 | 86.8
48 h | 7.14 | 19.8 | 111 | 116 | 106 | 90
72 h | 6.02 | 13.4 | 95.4 | 125 | 115 | –

Conditions | SARS-CoV-2 infection rate [%] | cell count [%] | cell viability [%] | morphology score | phospholipidosis EC50 [nM]
A549-ACE2 [2], 24 h | – | – | – | – | 935
A549-ACE2 [2], 48 h | – | – | – | – | 1040
A549-ACE2 [2], 72 h | – | – | – | – | 2250
Caco-2 [16], 1 nM | – | – | 92 | – | –
Caco-2 [16], 10 nM | – | – | 92.6 | – | –
Caco-2 [16], 100 nM | – | – | 97.2 | – | –
Caco-2 [16], 1000 nM | – | – | 88.4 | – | –
Caco-2 [16], 10000 nM | – | – | 51.2 | – | –
Calu-3 [18], 1 nM | – | – | 98 | – | –
Calu-3 [18], 10 nM | – | – | 103 | – | –
Calu-3 [18], 100 nM | – | – | 107 | – | –
Calu-3 [18], 1000 nM | – | – | 79.4 | – | –
Calu-3 [18], 10000 nM | – | – | 18.5 | – | –
HepG2 [15], 1 nM | – | – | 101 | – | –
HepG2 [15], 10 nM | – | – | 93.8 | – | –
HepG2 [15], 100 nM | – | – | 85.3 | – | –
HepG2 [15], 1000 nM | – | – | 84.5 | – | –
HepG2 [15], 10000 nM | – | – | 33.5 | – | –
U2OS [14], 1 nM | – | – | 99.4 | – | –
U2OS [14], 10 nM | – | – | 98.4 | – | –
U2OS [14], 100 nM | – | – | 99.7 | – | –
U2OS [14], 1000 nM | – | – | 84.9 | – | –
U2OS [14], 10000 nM | – | – | 78.6 | – | –
Vero E6 [17], 1 nM | – | – | 93.9 | – | –
Vero E6 [17], 10 nM | – | – | 104 | – | –
Vero E6 [17], 100 nM | – | – | 89.3 | – | –
Vero E6 [17], 1000 nM | – | – | 92.3 | – | –
Vero E6 [17], 10000 nM | – | – | 24.6 | – | –
[8], 0.1 µM | – | 96 | – | – | –
[8], 0.3 µM | – | 105 | – | – | –
[8], 1 µM | – | 114 | – | – | –
[8], 3 µM | – | 117 | – | – | –
[13], 0.1 µM | 108 | – | – | – | –
[13], 0.3 µM | 93 | – | – | – | –
[13], 1 µM | 81 | – | – | – | –
[13], 3 µM | 29 | – | – | – | –
[19], 0.1 µM | – | – | – | -0.31 | –
[19], 0.3 µM | – | – | – | 0.19 | –
[19], 1 µM | – | – | – | 0.41 | –
[19], 3 µM | – | – | – | 0.69 | –

Conditions | drug sensitivity score | relative viability EC50 [nM]
Caco-2 [5] | 4.4 | –
Calu-3 [7] | 7.7 | –
Calu-3 [12] | – | 1540
HepG2 [4] | 5.8 | –
HepG2 [10] | – | 1720
U2OS [3] | 2.2 | –
U2OS [9] | – | > 10000
Vero E6 [6] | 5.4 | –
Vero E6 [11] | – | 2320

CN(C(=O)Cc1ccc(Cl)c(Cl)c1)[C@H](CN1CCCC1)c1ccccc1
drug-induced phospholipidosis [%], A549-ACE2 [1]
Conditions | 0.3 µM | 0.833333 µM | 3.33333 µM | 6.66667 µM | 10 µM | 30 µM
24 h | 0.7 | 4.92 | 51.2 | 90.6 | 95.8 | 112
48 h | 4.43 | 3.22 | 36.7 | 77.7 | 97.8 | –
72 h | 3.91 | 2.85 | 31.5 | 65.6 | 90.5 | –

Conditions | SARS-CoV-2 infection rate [%] | cell count [%] | cell viability [%] | morphology score | phospholipidosis EC50 [nM]
A549-ACE2 [2], 24 h | – | – | – | – | 3630
A549-ACE2 [2], 48 h | – | – | – | – | 5180
A549-ACE2 [2], 72 h | – | – | – | – | 8350
Caco-2 [16], 1 nM | – | – | 96.7 | – | –
Caco-2 [16], 10 nM | – | – | 103 | – | –
Caco-2 [16], 100 nM | – | – | 103 | – | –
Caco-2 [16], 1000 nM | – | – | 103 | – | –
Caco-2 [16], 10000 nM | – | – | 76 | – | –
Calu-3 [18], 1 nM | – | – | 96.1 | – | –
Calu-3 [18], 10 nM | – | – | 100 | – | –
Calu-3 [18], 100 nM | – | – | 90.9 | – | –
Calu-3 [18], 1000 nM | – | – | 97.1 | – | –
Calu-3 [18], 10000 nM | – | – | 28.9 | – | –
HepG2 [15], 1 nM | – | – | 98.1 | – | –
HepG2 [15], 10 nM | – | – | 105 | – | –
HepG2 [15], 100 nM | – | – | 106 | – | –
HepG2 [15], 1000 nM | – | – | 99.4 | – | –
HepG2 [15], 10000 nM | – | – | 85.3 | – | –
U2OS [14], 1 nM | – | – | 96.9 | – | –
U2OS [14], 10 nM | – | – | 99.7 | – | –
U2OS [14], 100 nM | – | – | 101 | – | –
U2OS [14], 1000 nM | – | – | 106 | – | –
U2OS [14], 10000 nM | – | – | 89.9 | – | –
Vero E6 [17], 1 nM | – | – | 104 | – | –
Vero E6 [17], 10 nM | – | – | 101 | – | –
Vero E6 [17], 100 nM | – | – | 107 | – | –
Vero E6 [17], 1000 nM | – | – | 102 | – | –
Vero E6 [17], 10000 nM | – | – | 88.1 | – | –
[8], 0.3 µM | – | 96 | – | – | –
[8], 3 µM | – | 118 | – | – | –
[8], 10 µM | – | 121 | – | – | –
[8], 30 µM | – | 92 | – | – | –
[13], 0.3 µM | 97 | – | – | – | –
[13], 3 µM | 21 | – | – | – | –
[13], 10 µM | 17 | – | – | – | –
[13], 30 µM | 36 | – | – | – | –
[19], 0.3 µM | – | – | – | -0.06 | –
[19], 3 µM | – | – | – | 0.89 | –
[19], 10 µM | – | – | – | 0.84 | –
[19], 30 µM | – | – | – | 0.1 | –

Conditions | drug sensitivity score | relative viability EC50 [nM]
Caco-2 [5] | 0.7 | –
Caco-2 [20] | – | > 10000
Calu-3 [7] | 4.3 | –
Calu-3 [12] | – | 2850
HepG2 [4] | 0.3 | –
HepG2 [10] | – | > 10000
U2OS [3] | 0 | –
U2OS [9] | – | > 10000
Vero E6 [6] | 0 | –
Vero E6 [11] | – | > 10000
